Test results taken from US20240246946A1, “MODULATORS OF TREX1” (Constellation Pharmaceuticals, Inc., priority 2021, published 2024).

Tests used:
full length mouse TREX1 = target: T1, full length mouse TREX1 (Mus musculus, UniProt Q91XB0); assay: mTREX1 Biochemical Assay (fluorescence, dsDNA substrate degradation); details: biochemical, read-out: mTREX1 IC50
T1 construct: N-terminally His-Tev tagged full length mouse TREX1; made in house; host or cells: E. coli
T1 sequence (Q91XB0 1-314): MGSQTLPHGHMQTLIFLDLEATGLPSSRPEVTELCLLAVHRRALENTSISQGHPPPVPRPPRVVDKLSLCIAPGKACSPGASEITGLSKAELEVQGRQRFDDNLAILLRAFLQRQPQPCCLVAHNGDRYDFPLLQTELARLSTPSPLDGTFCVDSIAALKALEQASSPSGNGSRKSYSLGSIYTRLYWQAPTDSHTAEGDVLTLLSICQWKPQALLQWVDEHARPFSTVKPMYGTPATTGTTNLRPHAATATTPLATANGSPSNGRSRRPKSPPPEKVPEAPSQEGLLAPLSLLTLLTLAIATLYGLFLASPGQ
Outline: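 Reaction run 18 h at 25° C. with 60 nM TEX615/quencher-labelled dsDNA and 6 pM mouse TREX1 in Tris buffer (pH 7.4, 5 mM MgCl2, 1.0% DMSO), enzyme having sat 4 h with compound across 10 concentrations. EDTA quench; substrate degradation measured as fluorescence increase.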

hTREX1 = target: T2, hTREX1 (Homo sapiens, UniProt Q9NSU2); assay: hTREX1 HCT116 Cell Assay (HCT116 dual cells, Lucia luciferase reporter of Type I interferon induction); format: cell-based; details: TREX1i 4 h before pBR322/BstNI transfection, read after 48 h
T2 construct: host or cells: HCT116 dual cells
T2 sequence (Q9NSU2 1-314): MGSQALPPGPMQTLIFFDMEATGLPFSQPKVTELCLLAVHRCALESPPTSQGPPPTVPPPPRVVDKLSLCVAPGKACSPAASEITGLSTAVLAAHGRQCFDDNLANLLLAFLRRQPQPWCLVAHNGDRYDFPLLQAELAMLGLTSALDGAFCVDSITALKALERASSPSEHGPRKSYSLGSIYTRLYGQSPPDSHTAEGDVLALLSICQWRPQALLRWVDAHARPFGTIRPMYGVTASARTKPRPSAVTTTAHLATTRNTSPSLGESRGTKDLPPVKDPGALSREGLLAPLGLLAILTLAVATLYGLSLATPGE
Outline: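 HCT116 dual cells carrying an ISRE-type STAT1/STAT2-driven secreted Lucia luciferase reporter were pretreated with TREX1 inhibitor for 4 h (≤0.1% DMSO), then transfected with pBR322/BstNI DNA (100 ng/well, Lipofectamine LTX). Luciferase in medium read after 48 h at 37 °C.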

[1] = target: T3, human TREX2 (residues M44-A279) (Homo sapiens, UniProt Q9BQ50); assay: hTREX2 Biochemical Assay (fluorescence, dsDNA substrate degradation); details: biochemical selectivity for hTREX1 vs hTREX2
T3 construct: human TREX2 (residues M44-A279, expressed in E. coli); made in house; host or cells: E. coli
T3 sequence (Q9BQ50 44-279 isoform Q9BQ50-1): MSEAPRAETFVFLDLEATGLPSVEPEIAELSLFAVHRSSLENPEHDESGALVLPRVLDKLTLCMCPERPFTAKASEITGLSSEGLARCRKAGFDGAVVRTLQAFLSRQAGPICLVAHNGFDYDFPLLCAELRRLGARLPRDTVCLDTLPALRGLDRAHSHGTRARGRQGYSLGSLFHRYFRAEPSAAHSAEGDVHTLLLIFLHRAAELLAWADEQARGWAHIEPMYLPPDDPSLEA
Outline: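 N-His-Tev E. coli enzyme (50 pM) pre-incubated with compound 4 h at 25 °C, then 60 nM TEX615/quencher dsDNA added; 18 h at 25 °C, pH 7.4 Tris buffer with 5 mM MgCl2, 1.0% DMSO. EDTA-quenched; fluorescence 570 ex/615 em from liberated fluorophore, 10-point dose-response.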

full length human TREX1 = target: T4, full length human TREX1 (Homo sapiens, UniProt Q9NSU2); assay: hTREX1 Biochemical Assay (fluorescence, dsDNA substrate degradation); details: biochemical, read-out: hTREX1 IC50
T4 construct: N-terminally His-Tev tagged full length human TREX1; made in house; host or cells: E. coli
T4 sequence (Q9NSU2 1-314): T2 sequence (Q9NSU2 1-314)
Outline: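 Cleavage of 60 nM TEX615/quencher-labelled dsDNA in pH 7.4 Tris buffer with 5 mM MgCl2, 1.0% DMSO, run 18 hours at 25° C, EDTA-quenched; fluorescence read-out.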

SMILES | IC50 (full length mouse TREX1) [nM] | IC50 (hTREX1) [nM] | hTREX1 vs hTREX2 selectivity [1] | IC50 (full length human TREX1) [nM]
Cc1cnn(C(c2ccccc2Cl)C(C)c2nc(C(=O)Nc3cnoc3)c(O)c(=O)n2C)c1 (single isomer, unassigned) [Example 133 D1E2] | 1 to 10 | 10 to 100 | A (A = <25 fold selective for hTREX1) | 1 to 10
Cc1cc(C)n(C(c2ccccc2Cl)C(C)c2nc(C(=O)Nc3cnoc3)c(O)c(=O)n2C)n1 (single isomer, unassigned) [Example 136 D1E2] | > 10 | 10 to 100 | B (B = 25 to 50-fold selective for hTREX1) | < 1
Cc1ccnn1C(c1cc(F)ccc1Cl)C(C)c1nc(C(=O)Nc2cnoc2)c(O)c(=O)n1C (single isomer, unassigned) [Example 145 D1E1] | > 10 | 10 to 100 | B (B = 25 to 50-fold selective for hTREX1) | 1 to 10
Cc1cc(C(c2ccccc2C#N)C(C)c2nc(C(=O)Nc3cnoc3)c(O)c(=O)n2C)n(C)n1 (single isomer, unassigned) [Example 63 D1E1] | 1 to 10 | < 10 | C (C = >50 fold selective for hTREX1) | < 1
Cc1nn(C)cc1C(c1cc(F)ccc1C#N)C(c1nc(C(=O)Nc2cnoc2)c(O)c(=O)n1C)C(F)(F)F (single isomer, unassigned) [Example 42 D1E2] | 1 to 10 | 10 to 100 | C (C = >50 fold selective for hTREX1) | < 1
COCCn1cc(C(c2ccccc2C#N)C(C)c2nc(C(=O)Nc3cnoc3)c(O)c(=O)n2C)cn1 (single isomer, unassigned) [Example 9 D1E1] | 1 to 10 | 10 to 100 | C (C = >50 fold selective for hTREX1) | < 1
CC(c1nc(C(=O)Nc2cnoc2)c(O)c(=O)n1C)C(c1ccccc1)c1cccnc1C#N (single isomer, unassigned) [Example 155 D2E1] | > 10 | 10 to 100 | C (C = >50 fold selective for hTREX1) | < 1
CC(c1nc(C(=O)Nc2cnoc2)c(O)c(=O)n1C)C(c1ccccc1C#N)c1cn(C)nc1F (single isomer, unassigned) [Example 91 D1E2] | > 10 | > 100 | A (A = <25 fold selective for hTREX1) | > 10
CC(c1nc(C(=O)Nc2cnoc2)c(O)c(=O)n1C)C(c1cc(F)ccc1Cl)c1cn(C)nc1C#N (single isomer, unassigned) [Example 89 D1E2] | 1 to 10 | < 10 | C (C = >50 fold selective for hTREX1) | < 1
Cc1nn(C)c(C)c1C(c1cc(F)ccc1Cl)C(C)c1nc(C(=O)Nc2cnoc2)c(O)c(=O)n1C (single isomer, unassigned) [Example 154 D1E1] | 1 to 10 | > 100 | B (B = 25 to 50-fold selective for hTREX1) | < 1
Cc1cnc(C(c2cc(F)ccc2Cl)C(C)c2nc(C(=O)Nc3cnoc3)c(O)c(=O)n2C)cn1 (single isomer, unassigned) [Example 117 D1E2] | 1 to 10 | < 10 | A (A = <25 fold selective for hTREX1) | < 1
CC(c1nc(C(=O)Nc2cnoc2)c(O)c(=O)n1C)C(c1ccccc1Cl)n1cnc2ccccc21 (single isomer, unassigned) [Example 143 D1E1] | 1 to 10 | 10 to 100 | B (B = 25 to 50-fold selective for hTREX1) | < 1
CC(c1nc(C(=O)Nc2cnoc2)c(O)c(=O)n1C)C(c1cnn(C)c1)c1ccc(F)cc1C#N (single isomer, unassigned) [Example 15 D1E1] | 1 to 10 | < 10 | C (C = >50 fold selective for hTREX1) | < 1
Cc1ccc(C(c2ccccc2C#N)C(C)c2nc(C(=O)Nc3cnoc3)c(O)c(=O)n2C)cn1 (single isomer, unassigned) [Example 5 D1E2] | < 1 | < 10 | B (B = 25 to 50-fold selective for hTREX1) | < 1
CC(c1nc(C(=O)Nc2cnoc2)c(O)c(=O)n1C)C(c1cnn(CC(C)(C)O)c1)c1cc(F)ccc1Cl (single isomer, unassigned) [Example 92 D1E1] | 1 to 10 | > 100 | A (A = <25 fold selective for hTREX1) | 1 to 10
CC(c1nc(C(=O)Nc2cnoc2)c(O)c(=O)n1C)C(c1cnn(CC(F)F)c1)c1cc(F)ccc1C#N (single isomer, unassigned) [Example 102 D1E2] | 1 to 10 | 10 to 100 | B (B = 25 to 50-fold selective for hTREX1) | < 1
Cc1ccnn1C(c1ccccc1C#N)C(C)c1nc(C(=O)Nc2cnoc2)c(O)c(=O)n1C (single isomer, unassigned) [Example 138 D1E1] | 1 to 10 | 10 to 100 | B (B = 25 to 50-fold selective for hTREX1) | < 1
CC(c1nc(C(=O)Nc2cnoc2)c(O)c(=O)n1C)C(c1ccccc1C#N)c1c[nH]nc1F (single isomer, unassigned) [Example 127 D1E2] | > 10 | > 100 | B (B = 25 to 50-fold selective for hTREX1) | 1 to 10
Cc1cc(C(c2cc(F)ccc2C#N)C(C)c2nc(C(=O)Nc3cnoc3)c(O)c(=O)n2C)nn1C (single isomer, unassigned) [Example 112 D1E1] | 1 to 10 | 10 to 100 | C (C = >50 fold selective for hTREX1) | < 1
CC(c1nc(C(=O)Nc2cnoc2)c(O)c(=O)n1C)C(c1cnn(C)c1)c1ccc(C(=O)N(C)C)cc1C#N (single isomer, unassigned) [Example 11 D1E1] | < 1 | > 100 | B (B = 25 to 50-fold selective for hTREX1) | < 1
CC(c1nc(C(=O)Nc2cnoc2)c(O)c(=O)n1C)C(c1cn[nH]c1)c1ccccc1C#N (single isomer, unassigned) [Example 12 D2E1] | > 10 | > 100 | C (C = >50 fold selective for hTREX1) | 1 to 10
CC(c1nc(C(=O)Nc2cnoc2)c(O)c(=O)n1C)C(c1ccccc1Cl)n1nccc1C#N (single isomer, unassigned) [Example 140 D1E1] | 1 to 10 | 10 to 100 | B (B = 25 to 50-fold selective for hTREX1) | < 1
CCc1cnn(C(c2ccccc2Cl)C(C)c2nc(C(=O)Nc3cnoc3)c(O)c(=O)n2C)c1 (single isomer, unassigned) [Example 134 D1E1] | 1 to 10 | > 100 | A (A = <25 fold selective for hTREX1) | 1 to 10
CC(C)c1cnn(C(c2ccccc2Cl)C(C)c2nc(C(=O)Nc3cnoc3)c(O)c(=O)n2C)c1 (single isomer, unassigned) [Example 135 D1E1] | 1 to 10 | > 100 | B (B = 25 to 50-fold selective for hTREX1) | 1 to 10
